Values joined by “and” are separate entries in the source; they are usually repeats but may differ in a detail not shown here. Equal entries are not always repeated.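 All cell lines were grown in 96-well plates and treated with compound for 48 hours. GI50: concentration for 50% inhibition of growth. TGI: concentration producing complete growth inhibition.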

Holding throughout (assay): NCI anticancer screen, dose series, 48 h
In assay [1] the test system is CAKI-1 renal.
Assay [2] concerns COLO 205 colon.
For assay [3], the system named is EKVX NSCLC.
Assay [4] relates to HCC-2998 colon.
In assay [5] the test system is HCT-15 colon.
In assay [6] the test system is HOP-62 NSCLC.
For assay [7], the system named is IGROV1 ovarian.
For assay [8], the system named is LOX IMVI melanoma.
Assay [9] relates to M14 melanoma.
The subject of assay [10] is MDA-N.
Assay [11] deals with MOLT-4 leukemia.
In assay [12] the test system is NCI-H522 lung.
Assay [13] relates to RPMI-8226 leukemia.
Assay [14] has as its system SR leukemia.
The test system of assay [15] is T-47D breast.
Assay [16] has as its system U251 CNS.
The test system of assay [17] is OVCAR-4 ovarian.

For the compound `COc1ccc(Nc2nc3ccccc3nc2C(=O)O)cc1OC`, the TGI in assay [1], in assay [2], in assay [3], in assay [4], in [5] and in [6] was greater than 100 µM throughout. The TGI in assay [7], in [8], in [9], in assay [10], in assay [11] and in [12] was greater than 100 µM each time. Besides, the TGI in assay [13], in assay [14], in assay [15] and in [16] was greater than 100 µM in each case.

As for `Cc1cc2c(cc1C)C(=O)/C(=N/Nc1ccc(F)cc1)CCO2`, the TGI in assay [1], in [2], in [3], in [4], in [5] and in assay [6] was greater than 100 µM in each case. For the same compound, the TGI in assay [7], in [8], in assay [9], in assay [10], in assay [11] and in assay [12] was greater than 100 µM throughout. Also, the TGI in assay [17], in [13], in assay [14], in assay [15] and in assay [16] was greater than 100 µM each time.

With `CC1OC(O[C@H]2CC[C@]3(C=O)[C@H]4CC[C@]5(C)[C@H](C6=CC(=O)OC6)CC[C@]5(O)[C@@H]4C=C[C@]3(O)C2)CC(O)C1O` (some centres undefined), the TGI in assay [1] worked out at 0.428 µM; in assay [2] it was 1.91 µM; in [3], 0.611 µM; in assay [4], 2.92 µM; in [5], 0.62 µM; in assay [6] it was 0.503 µM. Also, the TGI in [7] is 4.5 µM; in [8] it was 0.652 µM; in [9] it was 0.761 µM; in assay [10], 0.807 µM; in assay [11] it was 0.3 µM; in assay [12], 0.241 µM. The TGI in assay [17] is 0.838 µM; in assay [13] it was 2.37 µM; in assay [14], 0.682 µM; in assay [15] it was 1.27 µM; in [16] it was 0.694 µM.

As for `O=C1C(Cl)C(c2cc3cc(Br)ccc3nc2Cl)N1c1c(Cl)cccc1Cl` (centres undefined), the TGI was greater than 25 µM in [1]; greater than 25 µM in assay [2]; 22.2 µM in assay [3]; greater than 25 µM in assay [4]; greater than 25 µM in [5]; greater than 25 µM in [6]. The TGI in assay [7] is greater than 25 µM; in assay [8], 7.96 µM; in assay [9] it was greater than 25 µM; in assay [10], greater than 25 µM; in assay [11], 11.4 µM; in assay [12], 11.3 µM. Further, the TGI in [17] is 11.4 µM; in assay [13], 23 µM; in assay [14], 10.7 µM; in assay [15] it was greater than 25 µM.

As to `CC(=O)OCC(OC(C)=O)C(OC(C)=O)C(OC(C)=O)C(/C=N\Nc1nc2ccccc2c(=O)[nH]1)=N/Nc1nc2ccccc2c(=O)[nH]1` (centres undefined), the TGI in assay [1], in assay [2], in assay [3], in assay [4], in [5] and in assay [6] was greater than 100 µM throughout. Moreover, the TGI in assay [8], in assay [9], in assay [10], in [11], in assay [12] and in assay [13] was greater than 100 µM each time. Further, the TGI in [14], in assay [15] and in assay [16] was greater than 100 µM in each case.

On to `Nc1ccccc1N=Nc1c(S(=O)(=O)O)cc2cc(S(=O)(=O)O)cc(O)c2c1O`, for which the TGI in assay [1], in assay [2], in assay [3], in assay [4], in assay [5] and in [6] was greater than 100 µM each time. Moreover, the TGI in assay [7], in assay [8], in assay [9], in assay [10], in assay [11] and in [12] was greater than 100 µM in each case. The TGI in assay [17], in assay [13], in assay [14], in assay [15] and in assay [16] was greater than 100 µM in each case.

As to `COc1ccc(N2C(=O)/C(=C\c3cccc(Oc4ccccc4)c3)SC2c2ccccc2)cc1` (centres undefined), the TGI in assay [1], in assay [2], in assay [3], in assay [4], in assay [5] and in [6] was greater than 100 µM in each case. Also, the TGI in assay [8] is greater than 100 µM; in assay [9], greater than 100 µM; in [10] it was greater than 100 µM; in [11], 74.1 µM; in assay [12] it was 58.9 µM; in assay [17], greater than 100 µM. Moreover, the TGI in assay [13] was 60.9 µM; in assay [14] it was 59.2 µM; in assay [15], greater than 100 µM; in [16], greater than 100 µM.

As to `NC(=O)C(Nc1ccc(Cl)cc1)c1cc2cc(Br)ccc2nc1Cl` (centres undefined), the TGI in assay [1], in [2], in assay [3], in assay [4], in assay [5] and in assay [6] was greater than 50 µM in each case. Also, the TGI in assay [7], in assay [8], in assay [9], in assay [10], in [11] and in [12] was greater than 50 µM in each case. Also, the TGI in [17], in assay [13], in assay [14] and in assay [15] was greater than 50 µM in each case.

For the compound `O=C(NNC(=S)NCc1ccccc1)C12CC3CC(CC(C3)C1)C2`, the TGI was 44.1 µM in assay [2]; greater than 100 µM in [4]; greater than 100 µM in assay [5]; greater than 100 µM in [6]; greater than 100 µM in [7]; greater than 100 µM in assay [8]. The TGI in assay [9], in [10], in [11], in assay [12], in assay [17] and in [13] was greater than 100 µM each time. Besides, the TGI in [14], in assay [15] and in assay [16] was greater than 100 µM each time.

As to `Cc1c(-c2ccccc2)c(C#N)c2nnn(-c3cccc(Cl)c3)c(=O)n12`, the TGI in [1], in assay [2], in assay [3], in assay [4], in [5] and in assay [6] was greater than 100 µM throughout. The TGI in assay [7], in assay [8], in [10], in assay [12], in assay [17] and in [13] was greater than 100 µM each time. For the same compound, the TGI in assay [14], in assay [15] and in assay [16] was greater than 100 µM throughout.

As to `CN(C)c1ccc(C(=NN)c2ccc(N(C)C)cc2)cc1`, the TGI in assay [1] is greater than 51 µM; in assay [3], greater than 100 µM; in assay [4], 3.73 µM; in assay [5] it was greater than 40.9 µM; in [6], greater than 57.6 µM; in assay [7], greater than 100 µM. For the same compound, the TGI was greater than 100 µM in [8]; greater than 100 µM in assay [9]; 24.4 µM in assay [10]; 18.7 µM in assay [12]; greater than 100 µM in [17]; 10.3 µM in [13]. Moreover, the TGI in [14] was greater than 100 µM; in [15], greater than 100 µM; in [16], 9.21 µM.

Turning to `CC(Oc1ccccc1Cl)C(=O)NN1C(=O)CSC1c1ccc(Cl)cc1` (centres undefined), the TGI in assay [1] stood at 56.4 µM; in assay [2], 37.1 µM; in [3], 71.6 µM; in assay [4], 34.2 µM; in [5] it was 43.8 µM; in assay [6], 36.4 µM. Further, the TGI in assay [7] was 43 µM; in assay [8], 39 µM; in assay [9], 34.5 µM; in assay [10] it was 29.8 µM; in [12] it was 32.8 µM; in [17] it was 29.3 µM. For the same compound, the TGI is 38.4 µM in [13], 22.9 µM in assay [14], 52.1 µM in assay [15] and 31.6 µM in [16].

On to `COC(=O)c1c2c(cc3c1CC1(Cc4cc5c(cc4C1)CCC5)C3)CCC2`, for which the TGI in assay [1], in assay [3], in [4], in assay [5], in assay [6] and in assay [7] was greater than 100 µM each time. The TGI in assay [8], in [9], in [10], in assay [11], in assay [12] and in [17] was greater than 100 µM throughout. In addition, the TGI in assay [13], in assay [14], in [15] and in assay [16] was greater than 100 µM throughout.

For the compound `N#Cc1c(-c2ccccc2)c(C#N)c(=O)n(C2OC(CO)C(O)C(O)C2O)c1S` (centres undefined), the TGI in assay [1], in assay [4], in assay [5], in assay [6], in assay [7] and in [8] was greater than 100 µM in each case. Also, the TGI in [9], in assay [10], in assay [11], in [12], in assay [13] and in [14] was greater than 100 µM throughout. For the same compound, the TGI in assay [15] was greater than 100 µM. The GI50 in assay [4] is > 100 µM and 40.4 µM.

For the compound `O=C(Nn1cnn2c(=O)c3ccccc3nc2c1=O)c1ccccc1`, the TGI in [1], in [2], in assay [3], in assay [4], in assay [5] and in assay [6] was greater than 100 µM throughout. In addition, the TGI in assay [7], in assay [8], in assay [9], in [10], in assay [12] and in assay [17] was greater than 100 µM in each case. The TGI in assay [13], in assay [14], in assay [15] and in assay [16] was greater than 100 µM throughout.

Regarding `CC(=O)Oc1c(C)c2c(c3ccccc13)OC(C)(C)C2`, the TGI stood at 40.3 µM in assay [1]; 38.5 µM in assay [2]; 34 µM in assay [3]; 32.7 µM in assay [4]; 30.6 µM in assay [5]; 34.5 µM in assay [6]. Besides, the TGI was 30.9 µM in assay [7]; 30.9 µM in assay [9]; 24.9 µM in [10]; 37.1 µM in assay [11]; 36.7 µM in [12]; 30 µM in assay [17]. The TGI in assay [13] was 39.1 µM; in assay [14], 52.8 µM; in [15], 60 µM; in [16], 33.4 µM.

`Cn1c(=O)oc2cc(Br)ccc21`: the TGI in assay [1], in assay [2], in assay [3], in [4], in [5] and in [6] was greater than 100 µM throughout. The TGI in assay [7], in [8], in assay [9], in assay [10], in [11] and in [12] was greater than 100 µM in each case. In addition, the TGI in assay [17], in assay [13], in assay [14] and in assay [15] was greater than 100 µM each time.

For the origin of these results see PubChem BioAssay (NCI).
